Test results: paper PMC4501319, “Discovery of Selective Small-Molecule Activators of a Bacterial Glycoside Hydrolase” (Angewandte Chemie (International Ed. in English), 2014)
Where “and” joins values, the source holds several entries; their conditions need not be identical. Equal entries are not always repeated.

Columns and labels:
BtGH84 [1] = biological target: T1, BtGH84 (Bacteroides thetaiotaomicron, UniProt Q89ZI2); assay: Affinity by NMR spectroscopy using proton relaxation rates R2; format: binding
T1 construct: made in house
Method: (§1) Compounds in the fragment library were purchased from Specs, additional structural neighbours were purchased from Specs and Enamine. O-(2-Acetamido-2-deoxy-D-glucopyranosylidene) amino-Z-N-phenylcarbamate (PUGNAc) was purchased from Tocris Bioscience.
(§2) The fragment library was assembled as described by Schulz et al.[1] and dissolved in DMSO-d6 to a concentration of 200 mM and quality controlled using 1H NMR spectroscopy. Instant JChem 5.3.8, 2010, ChemAxon (http://www.chemaxon.com), was used for structure database management.
(§3) NMR spectroscopy and fragment screening
(§4) NMR experiments were carried out on a Bruker Avance II 700 MHz NMR spectrometer equipped with a triple resonance probe and z axis gradients. Data were processed using Topspin 3.2 software. Three NMR experiments were used for the screening, STD NMR,[2] PO-WaterLOGSY,[3] and T1ρ-filtered[4] 1H NMR experiments. […] The experiments were recorded using the standard STD NMR pulse sequence with a 15 ms 6 kHz spin-lock pulse to reduce the background protein resonances and excitation sculpting to suppress the water resonance. […]
Figure S3. Dissociation constant of 2 for BtGH84 determined in the presence of PUGNAc with 1H R2 relaxation rates. […]

BtGH84 [2] = biological target: T1, BtGH84; assay: 4MU-GlcNAc cleavage assay (fluorescent kinetic enzyme activity assay); format: biochemical; conditions: for Vmax(app): Michaelis–Menten fit, 1 % DMSO, substrate 50 μM to 2 mM, activator concentration 2 mM; for Kd: affinity of activator to the substrate-bound enzyme, read-out: αKA; for Vmax / α / β: non-essential activator equation fit to covariation experiments; for Vmax: activator 50 µM to 2 mM; for α: modifies KM; for β: modifies Vmax/kcat; for Emax: read-out: Maximum activation
Method: AC50 measurements of fragment activators were performed using a fluorescent kinetic assay. Assays were carried out in a 96 well plate (Black Nunc F96 MicroWell Plates) at 25°C in a total volume of 100 μl per well, buffer (50 mM MES pH 6.5, 200 mM NaCl, 0.01% Tween-20, 1% DMSO) with 500 μM 4-methylumbelliferyl-β-D-GlcNAc (4MU-GlcNAc), as substrate and 50 nM BtGH84. Reactions were initiated by addition of 10 μl of substrate, to a final concentration of 500 μM, followed by 5 s of shaking. Fluorescent 4-methylumbelliferyl release was recorded continuously at 355 nm excitation and 460 nm emission for 20 s using a BMG PolarStar Optima plate reader. Rates were calculated using Sigmaplot as the slope of the curve of the collected data. Corrections were made to the detected gradients to adjust for the inner filter effect of 4MU-GlcNAc and convert the gradients into units of μmol min-1 according to a standard curve of 4MU. […]
Kinetic experiments using 4MU-GlcNAc were carried out in an analogous manner except that reactions were initiated by a 10 μl injection of BtGH84, to a final concentration of 50 nM, in a well containing the substrate at the desired concentration. Values quoted throughout are mean and standard deviation of three independent […]
Apparent KM and Vmax values were calculated from a Michalis-Menten curve fit to 8-10 point substrate titrations at a constant concentration of the activator. The covariation experiments used the same range of substrate concentrations across an activator concentration range of 50 µM to 2 mM. The data obtained from these experiments was fit to the nonessential activator equation: […]
Here, [S] is the concentration of the […], [A] the concentration of the activator, α modifies KM, β modifies Vmax and KA is the half-max concentration of the activator. […]

[3] = system: β-N-Acetylglucosaminidase from Canavalia ensiformis (Jack bean); assay: 4MU-GlcNAc substrate titration with commercially available β-N-acetylglucosaminidase; format: biochemical; conditions: 4MU-GlcNAc substrate titration at pH 4.9 and pH 6.5
Description: Figure S8: Effect of activators 2 and 4 on a β-N-Acetylglucosaminidase from Canavalia ensiformis (Jack
(B) titration at the same pH as used for the BtGH84 studies (pH 6.5).
Enzyme supplied by Sigma (purified from native source).
(1 picture or pasted object on this page, not shown here)

Aqueous solubility = format: physicochemical
BtGH84 [4] = biological target: T1, BtGH84; assay: STD NMR competition between activators; format: binding; conditions: in the presence of 2 (25 mM) as competitor
Method: as §1, §2, §3
as §4, with “experiments. All NMR screening data were collected at 288K and the samples contained 20 μM BtGH84, fragments at a concentration of approximately 200 μM per compound and 20 μM of TSP in 25 mM phosphate buffer containing 150 mM NaCl and 10% D2O at pH 7.4.” for “experiments.”

[5] = titration of activator from 50 μM to 2 mM, substrate concentration 500 μM

T1 sequence (Q89ZI2 22-737, change not shown): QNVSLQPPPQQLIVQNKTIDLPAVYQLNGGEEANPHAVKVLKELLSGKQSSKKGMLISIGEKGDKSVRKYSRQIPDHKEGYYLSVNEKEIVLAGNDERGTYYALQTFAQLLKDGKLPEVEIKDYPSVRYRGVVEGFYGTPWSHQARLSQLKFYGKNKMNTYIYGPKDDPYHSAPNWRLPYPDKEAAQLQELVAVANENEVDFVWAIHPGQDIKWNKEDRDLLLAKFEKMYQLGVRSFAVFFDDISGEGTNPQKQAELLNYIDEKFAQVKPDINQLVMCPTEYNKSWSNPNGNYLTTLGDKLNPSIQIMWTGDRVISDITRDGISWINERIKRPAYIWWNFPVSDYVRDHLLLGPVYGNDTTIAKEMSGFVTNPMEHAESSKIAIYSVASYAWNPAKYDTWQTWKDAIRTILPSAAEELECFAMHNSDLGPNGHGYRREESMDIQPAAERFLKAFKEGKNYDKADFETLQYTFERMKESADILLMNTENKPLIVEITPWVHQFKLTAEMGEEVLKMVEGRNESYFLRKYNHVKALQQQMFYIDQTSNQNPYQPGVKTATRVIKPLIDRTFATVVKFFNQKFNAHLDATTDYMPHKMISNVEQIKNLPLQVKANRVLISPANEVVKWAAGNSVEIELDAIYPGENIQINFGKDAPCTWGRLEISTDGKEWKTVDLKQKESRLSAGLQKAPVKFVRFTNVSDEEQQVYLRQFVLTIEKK

SMILES | affinity for BtGH84 (BtGH84 [1]; in the absence of PUGNAc, compared with presence of PUGNAc) | Kd (BtGH84 [1]; in the presence of PUGNAc (200 μM), 8 μM BtGH84, 298 K) | AC50 (BtGH84 [2]; activation, 4MU-GlcNAc substrate concentration 500 μM) | activation of β-N-acetylglucosaminidase [3] | aqueous solubility (Aqueous solubility; compared to the original activator 2) | highest concentration attainable at 1% DMSO (Aqueous solubility; enzyme assay buffer, 1% DMSO) | Vmax(app) (BtGH84 [2]) | Kd (BtGH84 [2]; covariation experiments) | βkcat (BtGH84 [2]; covariation experiments) | Vmax (BtGH84 [2]) | α (BtGH84 [2]) | β (BtGH84 [2]) | AC50 (BtGH84 [2]; [5]) | Emax (BtGH84 [2]; [5]) | saturation transfer (STD NMR signal) from BtGH84 to activator (BtGH84 [4]) | enhancement of substrate binding in the presence of the activator (BtGH84 [2]; from α, covariation experiments) | increase of kcat in the presence of the activator (BtGH84 [2]; from β, covariation experiments)
CCOc1ncnc2ccccc12 [Compound 2, 4-ethoxyquinazoline] | weaker | 3.1 ± 0.7 mM | 3500 µM and ~3500 µM | do not increase the activity | – | – | – | – | – | – | – | – | – | – | – | – | –
CCOc1ncnc2sc(C)c(C)c12 [Compound 3] | – | – | – | – | poor | 2 mM | 0.022 ± 0.001 µmol/min | 1090 µM | 88.7 s⁻¹ | 0.019 ± 0.0007 µmol/min | 0.061 ± 0.04 | 1.4 ± 0.1 | 575 ± 78 µM | 284% | – | – | –
Cc1sc2ncnc(N3CCOCC3)c2c1C [Compound 4] | – | – | – | do not increase the activity | – | – | 0.026 ± 0.002 µmol/min | ~200 µM and 224 µM | 100 s⁻¹ | 0.018 ± 0.002 µmol/min | 0.14 and 0.14 ± 0.02 | 1.7 and 1.7 ± 0.1 | 259 ± 24 µM | 371% | significantly diminished | ~7 fold | 1.7 fold
CCc1cc2c(N3CCOCC3)ncnc2s1 [Compound 5] | – | – | – | – | – | – | 0.024 ± 0.001 µmol/min | ~200 µM and 205 µM | 75.8 s⁻¹ | 0.018 ± 0.0008 µmol/min | 0.17 ± 0.02 | 1.3 ± 0.07 | 274 ± 12 µM | 329% | clear loss in signal intensity | – | –
c1nc(N2CCOCC2)c2ccsc2n1 [Compound 6] | – | – | – | – | – | – | 0.015 ± 0.002 µmol/min | – | – | – | – | – | 702 ± 85 µM | 234% | – | – | –
